Experimental data reported in patent publication US20050142581A1, “Microrna as ligands and target molecules” (priority 2003, published 2005).
“And” between values parts separate entries of the source, which are not always exact repeats. Identical values can stand only once. “Also recorded” adds a separate entry of the source.

Tested on: 27 nucleotide fragment of bacterial 16S ribosomal RNA incorporating the A-site
Assay: ESI-FT-ICR mass spectrometry detection of non-covalent ligand complexes with 16S RNA fragment
Type: binding
Conditions: for ion abundance of binary complex relative to unbound 16S RNA: 200 μM ligand, 5 μM target 16S RNA fragment; for ion abundance of binary complex relative to unbound 16S RNA / relative binding affinity from comparison of ion abundance of binary complexes: mass spectrometry; for relative binding affinity from comparison of ion abundance of binary complexes: 16S RNA fragment; for mode of binding interaction of two ligands for the target RNA: ligand pair mixed with 5 μM 16S RNA fragment, presence and abundance of ternary complex
Excerpt: Ligands bind competitively for a target when the binding of one ligand prevents the binding of the other ligand is the result of the ligands binding to the target at the same location. In this situation, the mixture contains an equilibrium of two binary complexes, one of which being one ligand bound to the target and the other being the other ligand bound to the target. The ligand having the greater affinity for the target will predominate and thus have higher signal intensity for its binary complex with the target compared to the other ligand. Competitive binding interaction between two ligands is determined according to methods of the invention by analyzing the mixture by mass-spectrometry to detect the presence or lack of signal corresponding to a ternary complex where both ligands are bound to the target at the same time. The lack of signal for a ternary complex indicates a competitive binding interaction between the two ligands while the presence of the signal indicates a non-competitive interaction.
Ligands bind concurrently when the binding of one ligand to the target is unaffected by the binding of the other and is a consequence of the ligands binding to the target at distinct sites. […] The ligand having the greater affinity for the target will have higher signal intensity for its binary complex with the target compared to the other ligand. […] Particularly, the absolute ion abundance of the ternary complex (TL1L2) is compared to the relative ion abundance of the binary complexes (TL1 and TL2) which contribute to the formation of the ternary complex with respect to the unbound target (TL1×TL2/T). Since there are two binary complexes contributing the formation of the ternary complex, the comparison is with the sum of the two contributing binary complexes i.e. TL1×TL2/T+TL2×TL1/T. If the absolute ion abundance of the ternary complex is equal to the sum of the relative ion abundance of the contributing binary complexes, then the two ligands concurrently bind to the target substrate. […] The relative ion abundance of the ternary complex (16S+2−DOS+DT) with respect to the unbound 16S target RNA (16S) is equal, within limits of error, to the sum of the relative ion abundance of the contributing binary complex ((16S+DT)×(16S+2−DOS)) with respect to the unbound target (16S) and the contributing binary complex ((16S+2−DOS)+(16S+DT)) with respect to the unbound target (16S).
All MS experiments were performed by using an Apex II 70e ESI-FT-ICR MS (Bruker Daltonics, Billerica, Mass.) with an actively shielded 7 tesla superconducting magnet. RNA solutions were prepared in 50 mM NH4OAc (pH 7), mixed with 10% isopropanol to aid desolvation, and infused at a rate of 1.5 μL/min by using a syringe pump. Ions were formed in a modified electrospray source (Analytica, Branford, Conn.) by using an off-axis grounded electrospray probe positioned about 1.5 cm from the metallized terminus of the glass desolvation capillary biased at 5,000 V. A countercurrent flow of dry […] gas heated to 150° C. was used to assist in the desolvation process. Ions were accumulated in an external ion reservoir comprised of a radio frequency-only hexapole, a skimmer cone, and an auxiliary electrode for 1,000 ms before transfer into the trapped ion cell for mass analysis. Each spectrum was the result of the co-addition of 64 transients comprised of 524,288 data points acquired over a […] bandwidth, resulting in a 1.2-sec detection interval. All aspects of pulse sequence control, data acquisition, and postacquisition processing were performed by using a Bruker Daltonics data station running XMASS Version 4.0 on a Silicon Graphics (Mountain View, Calif.) R5000 computer.
RNA binding ligands are selected from a set of compounds using mass spectrometry. The RNA used for the target molecule is an RNA whose electrospray ionization properties have been optimized in conjunction with optimization of the electrospray ionization and desolvation conditions. […]

| Compound | relative binding affinity from comparison of ion abundance of binary complexes | mode of binding interaction of two ligands for the target RNA | other results |
| --- | --- | --- | --- |
| 1-{2-[(3R)-4-((2S)-2-amino-3-hydroxypropanoyl)-3-methylpiperazinyl]-2-oxoethyl}-5-methyl-1,3-dihydropyrimidine-2,4-dione [IBIS-271583] | greater affinity for 16S than either parent compound |  | ion abundance of binary complex relative to unbound 16S RNA: 27.8%; ion abundance of binary complex relative to unbound 16S RNA (listed as IBIS-271483): 52.4%; relative binding affinity from comparison of ion abundance of binary complexes (listed as IBIS-271483): greater affinity for the target 16S RNA than either of the parent compounds |
| N[C@@H]1C[C@H](N)[C@@H](O)C(O)[C@H]1O (some centres unmarked) [2-DOS, 2-deoxystreptamine, reference compound] | greater binding affinity for the target RNA than DT | concurrent binding interaction; also recorded: cooperative binding |  |
| NN1CN(SCc2ccccc2)C=N1 [2-amino-4-benzylthio-1,2,4-triazole] |  |  | ions of ligand adduct with RNA target observed (RNA target 5 micromolar, ligand 100 micromolar, ammonium as standard ligand): also seen |
| Nc1n[nH]c(N)n1 [DT, 3,5-diamino-1,2,4-triazole, reference compound] |  | concurrent binding interaction | mode of binding interaction of two ligands for the target RNA (listed as 3,5-DT): cooperative binding; mode of binding interaction of two ligands for the target RNA (listed as 3,5-diamino-1,2,4-triazole): concurrent binding |
| N[C@@H](CO)C(=O)N1CCNCC1 [IBIS-326611, (2S)-2-amino-3-hydroxy-1-piperazinylpropan-1-one] |  |  | ion abundance of binary complex relative to unbound 16S RNA: 14.7% and 27.8% |
| Nc1cccc2nc(C3CCNCC3)[nH]c12 [Ibis-326732, 4-amino-2-piperidin-4-ylbenzimidazole] | greater affinity than glucosamine | competitive displacement of glucosamine; also recorded: competitive binders |  |
| N[C@H]1C(O)O[C@H](CO)[C@@H](O)[C@@H]1O (some centres unmarked) [glucosamine, reference compound] |  | competitive binders; also recorded: displaced from the RNA by addition of a benzimidazole compound |  |
